Experimental findings from ChEMBL document CHEMBL1151634, “Phytochemical and biological screening of Saudi medicinal plants, Part 6. Isolation of 2 alpha-hydroxyalantolactone the antileukemic principle of Francoeuria crispa” (1984) are described below.

Converted amounts (≈) assume the structure as drawn.

Holding throughout (assay type): functional
Assay [1] can be described thus: Cytotoxicity against human 9KB cells.
A short description of assay [2]: Cytotoxicity against mouse 9PS cells.
The test system of another assay is P388. The assay can be described thus: In vivo cytotoxicity against mouse P388 cells at 75 mg/kg relative to control.
The next assay has as its system Staphylococcus aureus. The assay can be described thus: Antibacterial activity against Staphylococcus aureus NCTC 6571 after overnight incubation by tube dilution method.

With `C=C1C(=O)O[C@@H]2C[C@@]3(C)C[C@@H](O)C[C@H](C)C3=C[C@H]12`, the Activity in assay [1] was found to be 2 ×10⁻¹ ug/ml; in assay [2], 2 µg/mL. The compound also returned a T/C in the assay on P388 of 123%. Further, in the assay on Staphylococcus aureus, the MIC was found to be 0.625 µg/mL (≈ 2.52 µM).
